Assay [1] concerns the target T1, Proto-oncogene tyrosine-protein kinase Src [251-533] (Gallus gallus, UniProt P00523).
T1 construct: 251-533
Put plainly: In vitro Kinase Assay. Conditions: pH 8. On the procedure: (§1) In vitro kinase assays for c-Src variants were performed in 50 mM Tris (pH 8.0), 10 mM MgCl2 and 1 mg/mL BSA. When obtaining kinetic parameters (kcat, Km) kinase and peptide substrate (IYGEFKKK) (SEQ ID NO:51) concentrations were 2 nM and 500 μM, respectively, while ATP concentrations ranged from 2000-0.655 μM. Addition of nonradioactive ATP supplemented with 32P ATP (3,000 Ci/mmol, NEN) was used to initiate kinase reactions. Time points were selected such that product formation never exceeded 10%. Reactions were quenched by spotting 3 μL quantities onto phosphocellulose sheets (P81, Whatman). Afterwards, the sheets were washed 3×5 minutes in 0.5% phosphoric acid and dried. Radioactivity was measured by phosphorimaging and recorded on a Typhoon fluorescence imager (Molecular Dynamics).

For assay [2], the target named is T2, Proto-oncogene tyrosine-protein kinase Src [251-533,T338C] (Gallus gallus, UniProt P00523, T338C).
T2 construct: 251-533
Put plainly: In vitro Kinase Assay. Conditions: pH 8. On the procedure:
as §1

Structures are written as SMILES. Some results are limits rather than exact numbers.

By IC50 is commonly meant the midpoint of a concentration-inhibition curve. Low readings indicate higher potency, high ones lower potency. For `CC(=O)c1cccc(Cc2nn(C(C)C)c3ncnc(N)c23)c1` [US9353116, 14], the IC50 in assay [1] was > 5000 nM; in assay [2], 4520 nM.
Consider `C=CS(=O)(=O)Nc1ccc(Nc2ncnc3cc(OC)c(OC)cc23)cc1` [US9353116, 20], for which the values for the IC50 in assay [1] and in assay [2] were 2170 nM and 560 nM, respectively.

Source of the values: BindingDB's records for patent US9353116 (University of California, 2016).
